# Results published in patent US10085940B2, “Liposomes co-encapsulating a bisphosphonate and an amphipathic agent” (YISSUM RESEARCH DEVELOPMENT COMPANY OF THE HEBREW …, priority 2011, dated 2018).
# What was measured:
# [1] = test system: KG-1 cells; assay: PKH26/AnnexinV flow cytometry of KG-1 cells co-cultured with γδ T-cells; format: cell-based, human; settings: 20 μg/mL (Doxil 13.3 μg/mL) 24 h, then 4 h with γδ T-cells 1:1 or 1:5, 100 U/mL IL-2
# Experimental: The following method is based on the procedure described by Fischer and Mackensen (2003) The flow cytometric PKH-26 assay for the determination of T-cell mediated cytotoxic activity. Methods 31: 135-142.
# Specifically, 1×10^5 KG-1 cells, previously stained with PKH26 Red Fluorescent, were plated in a 24 well plate in 1 mL of complete media. These cells were then treated with different preparations: • (i) 20 μg/mL Alendronate (free Alendronate) • (ii) 20 μg/mL of liposomal Alendronate+Doxorubicin (L-ALD/DOX), • (iii) 20 μg/mL of folate targeted liposomal Alendronate+Doxorubicin (FR-L-ALD/DOX); • (iv) 13.3 μg/mL Doxil (the amount of doxorubicin correspondent to doxorubicin in L-ALD/DOX) • (v) Empty liposomes (stealth) • (vi) Control—no treatment.
# Cells were incubated for 24 h at 37° C. with a treatment formulation according to the above groups. After 24 h, each group of treated KG-1 cells was co-cultured with γδ T_cells at a ratio of 1 tumor cell to 1 γδ T-cell and at 1 tumor cell to 5 γδ T-cells. In addition, 100 U/mL of IL-2 was also given to each treatment group. […]
# After 4 h incubation, the cell cultures were stained with AnnexinV FITC (BD) in order to measure the percentage of apoptotic cells. The samples were analysed by flow cytometry and the principle is that tumor cell death is measured by analysing PKH26^+AnnexinV^+ cells.
# [2] = test system: M109R (doxorubicin resistant) carcinoma; format: in vivo, mouse; settings: M109R footpad tumor, i.v. 5 mg/kg doxorubicin or equivalent ALD, D7, D14, D21
# Experimental: The tumor model used here is the mouse M109R (doxorubicin resistant) carcinoma.
# M109R tumor cells (10^6 cells/0.05 ml) were inoculated into the subcutaneous space of the mouse right hind footpad. Five to 7 days after inoculation, mice injected with M109R cells developed solid tumors as measured by the increased thickening of the footpad. Different liposomes were injected i.v. at dose levels of 5 mg/kg based on Doxorubicin content or an amount of Alendronate equivalent to that present in the co-encapsulated formulation at doxorubicin dose of 5 mg/kg. […] Treatment was administered on Day 7 (D7), Day 14 (D14) and Day 21 (D21). Kaplan-Meyer curves were based on an experimental endpoint of tumor size equal or greater than 4 mm.
# [3] = test system: KB-hiFR; assay: In vitro cytotoxicity, 72 hr continuous exposure, methylene blue staining; format: cell-based, human; settings: for IC50: KB-hiFR, 72 hr continuous exposure
# Experimental: (§1) Cytotoxicity was assayed using varying concentrations of ALD (0.1-200 μM) under standard 72 hr, continuous exposure, in 96-multiwell assays. Growth rate was assessed colorimetrically based on methylene blue staining and data was obtained with an automatic plate reader and IC50 values were determined
# [4] = test system: N87 human gastric carcinoma cells; assay: as above; format: cell-based; settings: N-87
# Experimental: as §1
# [5] = test system: IGROV-1 ovarian carcinoma; assay: as above; format: cell-based, human
# Experimental: as §1
# Cytotoxicity was assayed as described above in Example 1.
SMILES,tumor cell killing / sensitivity to γδ T-cells (PKH26+AnnexinV+ cells) [1],anti-tumor activity [2],IC50 ([3]; Homo sapiens),"cytotoxicity (in words) ([3]; stated for KB, N87 and IGROV cell lines together (FIGS. 3B-3D))",IC50 [4],IC50 [5],IC50 [3]
"NCCCC(O)(P(=O)(O)O)P(=O)(O)O [Free ALD, 4-amino-1-hydroxybutylidene-1,1-bisphosphonic acid]",enhances tumour sensitivity to γδ T-cells' cytotoxic action,no anti-tumor effect,> 20000 nM,essentially no cytotoxicity,–,–,–
"COc1cccc2c1C(=O)c1c(O)c3c(c(O)c1C2=O)C[C@@](O)(C(=O)CO)C[C@@H]3O[C@H]1C[C@H](N)[C@H](O)[C@H](C)O1 [Free DOX, doxorubicin]",–,–,–,–,3120 nM,250 nM,40 nM
